Results as given in patent US11324738B2, “Muscarinic agonists” (Heptares Therapeutics Limited, priority 2015, dated 2022).

Key:
Format in all cases: cell-based
[1] = molecular target: T1, human muscarinic M4 receptor (Homo sapiens, UniProt P08173); experiment: Alphascreen Surefire phospho-ERK1/2 functional assay, CHO cells expressing M4; details: for Emax: CHO, read-out: % Emax cf. ACh, M4; for EC50: agonist, CHO cells, phospho-ERK1/2, read-out: pEC50 M4 (converted)
T1 construct: expressed in transfected cells
T1 sequence (P08173 1-479): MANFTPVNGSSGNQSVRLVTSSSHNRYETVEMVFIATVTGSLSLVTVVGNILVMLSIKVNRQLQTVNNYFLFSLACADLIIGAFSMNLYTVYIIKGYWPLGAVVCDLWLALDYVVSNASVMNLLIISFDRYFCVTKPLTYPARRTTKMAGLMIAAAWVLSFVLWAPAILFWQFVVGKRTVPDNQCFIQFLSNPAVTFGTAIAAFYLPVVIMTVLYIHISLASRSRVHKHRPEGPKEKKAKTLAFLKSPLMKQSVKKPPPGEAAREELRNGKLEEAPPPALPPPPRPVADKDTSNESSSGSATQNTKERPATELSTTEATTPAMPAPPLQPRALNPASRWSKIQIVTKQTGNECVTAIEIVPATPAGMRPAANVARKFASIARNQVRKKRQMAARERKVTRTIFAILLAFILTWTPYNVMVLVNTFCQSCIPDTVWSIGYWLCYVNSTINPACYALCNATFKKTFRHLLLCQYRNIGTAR
Experimental: (§1) ERK1/2 phosphorylation is a downstream consequence of both Gq/11 and Gi/o protein coupled receptor activation, making it highly suitable for the assessment of M1, M3 (Gq/11 coupled) and M2, M4 receptors (Gi/o coupled), rather than using different assay formats for different receptor subtypes. CHO cells stably expressing the human muscarinic M1, M2, M3 or M4 receptor were plated (25K/well) onto 96-well tissue culture plates in MEM-alpha+10% dialysed FBS. Once adhered, cells were serum-starved overnight. Agonist stimulation was performed by the addition of 5 μL agonist to the cells for 5 min (37° C.). Media was removed and 50 μL of lysis buffer added. After 15 min, a 4 μL sample was transferred to 384-well plate and 7 μL of detection mixture added.

[2] = molecular target: T2, human muscarinic M2 receptor (Homo sapiens, UniProt P08172); experiment: Alphascreen Surefire phospho-ERK1/2 functional assay, CHO cells expressing M2; details: for Emax: CHO, read-out: % Emax cf. ACh, M2; for EC50: agonist, CHO cells, phospho-ERK1/2, read-out: pEC50 M2 (converted)
T2 construct: expressed in transfected cells
T2 sequence (P08172 1-466): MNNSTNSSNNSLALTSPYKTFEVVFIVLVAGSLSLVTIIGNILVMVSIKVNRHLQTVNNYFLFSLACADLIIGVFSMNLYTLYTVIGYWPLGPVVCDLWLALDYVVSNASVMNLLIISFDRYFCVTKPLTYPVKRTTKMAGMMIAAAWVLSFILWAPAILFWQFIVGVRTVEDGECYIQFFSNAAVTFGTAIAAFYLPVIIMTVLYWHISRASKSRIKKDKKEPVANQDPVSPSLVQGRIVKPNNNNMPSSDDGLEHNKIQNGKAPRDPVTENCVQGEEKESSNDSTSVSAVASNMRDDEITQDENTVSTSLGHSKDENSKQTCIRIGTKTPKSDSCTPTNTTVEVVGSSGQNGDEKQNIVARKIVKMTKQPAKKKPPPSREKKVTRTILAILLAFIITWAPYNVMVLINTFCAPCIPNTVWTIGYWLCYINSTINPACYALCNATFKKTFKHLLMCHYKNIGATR
Experimental: as §1

[3] = molecular target: T3, human muscarinic M1 receptor (Homo sapiens, UniProt P11229); experiment: Alphascreen Surefire phospho-ERK1/2 functional assay, CHO cells expressing M1; details: for Emax: CHO, read-out: % Emax cf. ACh, M1; for EC50: agonist, CHO cells, phospho-ERK1/2, read-out: pEC50 M1 (converted)
T3 construct: expressed in transfected cells
T3 sequence (P11229 1-460): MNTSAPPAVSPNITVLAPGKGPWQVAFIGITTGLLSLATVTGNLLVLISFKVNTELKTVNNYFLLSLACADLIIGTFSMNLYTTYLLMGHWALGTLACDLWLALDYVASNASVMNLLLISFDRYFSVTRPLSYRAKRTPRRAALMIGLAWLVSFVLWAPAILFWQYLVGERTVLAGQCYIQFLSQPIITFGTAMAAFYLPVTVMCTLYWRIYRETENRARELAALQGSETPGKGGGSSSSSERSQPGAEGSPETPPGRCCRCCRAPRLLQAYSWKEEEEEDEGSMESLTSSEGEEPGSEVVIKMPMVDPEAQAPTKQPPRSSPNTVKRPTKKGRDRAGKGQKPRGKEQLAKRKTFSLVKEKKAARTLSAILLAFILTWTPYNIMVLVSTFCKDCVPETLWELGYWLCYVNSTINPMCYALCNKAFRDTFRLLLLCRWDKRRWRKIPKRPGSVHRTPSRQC
Experimental: as §1

[4] = molecular target: T4, human muscarinic M3 receptor (Homo sapiens, UniProt P20309); experiment: Alphascreen Surefire phospho-ERK1/2 functional assay, CHO cells expressing M3; details: for Emax: CHO, read-out: % Emax cf. ACh, M3; for EC50: agonist, CHO cells, phospho-ERK1/2, read-out: pEC50 M3 (converted)
T4 construct: expressed in transfected cells
Experimental: as §1

T4 sequence (P20309 whole entry): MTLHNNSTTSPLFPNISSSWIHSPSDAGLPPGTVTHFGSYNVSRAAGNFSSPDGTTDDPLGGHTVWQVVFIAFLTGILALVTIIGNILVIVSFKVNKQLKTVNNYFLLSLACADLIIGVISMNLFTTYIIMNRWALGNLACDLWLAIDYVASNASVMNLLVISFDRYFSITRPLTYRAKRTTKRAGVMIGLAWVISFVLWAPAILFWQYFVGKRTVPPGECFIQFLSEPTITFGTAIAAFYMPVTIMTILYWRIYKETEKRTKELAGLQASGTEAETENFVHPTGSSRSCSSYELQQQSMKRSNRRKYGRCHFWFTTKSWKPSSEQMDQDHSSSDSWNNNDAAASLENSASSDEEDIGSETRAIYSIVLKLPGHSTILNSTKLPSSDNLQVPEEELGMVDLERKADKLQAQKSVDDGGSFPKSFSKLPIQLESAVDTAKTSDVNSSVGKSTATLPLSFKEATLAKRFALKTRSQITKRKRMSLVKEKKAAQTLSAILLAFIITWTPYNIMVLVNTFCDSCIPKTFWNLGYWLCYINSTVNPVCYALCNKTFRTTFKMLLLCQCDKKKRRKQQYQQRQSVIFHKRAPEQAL

| Emax [1] [%] | EC50 [1] [nM] | Emax [2] [%] | EC50 [2] [nM] | Emax [3] [%] | EC50 [3] [nM] | Emax [4] [%] | EC50 [4] [nM] | SMILES |
| --- | --- | --- | --- | --- | --- | --- | --- | --- |
| 102 | 31.6 | 7 | > 20000 | 7 | 501 | 5 | > 20000 | CCOC(=O)N1CC2(CCC(N3CCC(c4nccn4C)CC3)C2)C1 (racemic) [Example 2-2 (racemic), Ethyl 6-[4-(1-methyl-1H-imidazol-2-yl)piperidin-1-yl]-2-azaspiro[3.4]octane-2-carboxylate] |
| 82 | 15.8 | 17 | > 20000 | 42 | 126 | 9 | > 20000 | COC(=O)N1CC2(CCC(N3CCC(c4nccn4C)CC3)C2)C1 (racemic) [Example 2-1 (racemic)] |
| 56 | 3.16 | 4 | > 20000 | 39 | > 20000 | 2 | > 20000 | CCOC(=O)N1CC2(CCC(N3CCC([C@@H]4CCCN4C(=O)NC)CC3)C2)C1 (mixture of isomers) [Example 2-4 (mixture of isomers), Ethyl 6-{4-[(2S)-1-(methylcarbamoyl)pyrrolidin-2-yl]piperidin-1-yl}-2-azaspiro[3.4]octane-2-carboxylate] |
